From PMC12638379, “An innovative approach to development of new pyrazolylquinolin-2-one hybrids as dual EGFR and BRAF^V600E inhibitors” (Molecular Diversity, 2025)
Where two headings read alike, the source gives them in different places.

Test system: NCI 60 cancer cell lines
Test: NCI anticancer screening over a panel of 60 cancer cells, single concentration 10 µM
Type: cell-based, human
Settings: Homo sapiens, read-out: Growth inhibition (GI %)
How it was run: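 Primary single-dose screen at 10 µM over the NCI panel of 60 human tumour cell lines (leukemia, CNS, lung, colon, kidney, ovary, breast, prostate). The standard NCI Developmental Therapeutics Program protocol was used.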

[1] = 786-0, Renal cancer 786-0, 10 μM
[2] = A549, Non-small cell lung cancer A549/ATCC, 10 μM
[3] = BT-549, Breast cancer BT-549, 10 μM
[4] = CAKI-1, Renal cancer CAKI-1, 10 μM
[5] = CCRF-CEM, Leukemia CCRF-CEM, 10 μM
[6] = COLO 205, Colon cancer COLO 205, 10 μM
[7] = DU-145, Prostate cancer DU-145, 10 μM
[8] = EKVX, Non-small cell lung cancer EKVX, 10 μM
[9] = HCC 2998, Colon cancer HCC-2998, 10 μM
[10] = HCT-15, Colon cancer HCT-15, 10 μM
[11] = HCT-116, Colon cancer HCT-116, 10 μM
[12] = HL-60, Leukemia HL-60(TB), 10 μM
[13] = HOP-62, Non-small cell lung cancer HOP-62, 10 μM
[14] = HOP-92, Non-small cell lung cancer HOP-92, 10 μM
[15] = HT-29, Colon cancer HT29, 10 μM
[16] = Hs-578T, Breast cancer HS 578T, 10 μM
[17] = IGROV-1, Ovarian cancer IGROV1, 10 μM
[18] = LOX IMVI, Melanoma LOX IMVI, 10 μM
[19] = MCF7, Breast cancer MCF7, 10 μM
[20] = MDA-MB-231, Breast Cancer MDA-MB 231/ATCC, 10 μM
[21] = MDA-MB-435, Melanoma MDA-MB-435, 10 μM
[22] = MDA-MB-468, Breast cancer MDA-MB-468, 10 μM
[23] = Malme-3M, Melanoma MALME-3M, 10 μM
[24] = NCI-H23, Non-small cell lung cancer NCI-H23, 10 μM
[25] = NCI-H226, Non-small cell lung cancer NCI-H226, 10 μM
[26] = NCI-H322M, Non-small cell lung cancer NCI-H322M, 10 μM
[27] = NCI-H460, Non-small cell lung cancer NCI-H460, 10 μM
[28] = NCI-H522, Non-small cell lung cancer NCI-H522, 10 μM
[29] = NCI/ADR-RES, Ovarian cancer NCI/ADR-RES, 10 μM
[30] = OVCAR-3, Ovarian cancer OVCAR-3, 10 μM
[31] = OVCAR-4, Ovarian cancer OVCAR-4, 10 μM
[32] = OVCAR-5, Ovarian cancer OVCAR-5, 10 μM
[33] = OVCAR-8, Ovarian cancer OVCAR-8, 10 μM
[34] = RPMI-8226, Leukemia RPMI-8226, 10 μM
[35] = RXF 393, Renal cancer RXF 393, 10 μM
[36] = SF-268, CNS Cancer SF-268, 10 μM
[37] = SF-295, CNS Cancer SF-295, 10 μM
[38] = SF-539, CNS Cancer SF-539, 10 μM
[39] = SK-MEL-2, Melanoma SK-MEL-2, 10 μM
[40] = SK-MEL-5, Melanoma SK-MEL-5, 10 μM
[41] = SK-MEL-28, Melanoma SK-MEL-28, 10 μM
[42] = SK-OV-3, Ovarian cancer SK-OV-3, 10 μM
[43] = SN12C, Renal cancer SN12C, 10 μM
[44] = SNB-19, CNS Cancer SNB-19, 10 μM
[45] = SNB-75, CNS Cancer SNB-75, 10 μM
[46] = SW-620, Colon cancer SW-620, 10 μM
[47] = T47D, Breast cancer T-47D, 10 μM
[48] = TK-10, Renal cancer TK-10, 10 μM
[49] = UACC-62, Melanoma UACC-62, 10 μM
[50] = UACC-257, Melanoma UACC-257, 10 μM
[51] = UO-31, Renal cancer UO-31, 10 μM

CC(=O)c1cnn(-c2cc(=O)[nH]c3ccc(Br)cc23)c1C [Compound 2e, 4-(4-Acetyl-5-methyl-1H-pyrazol-1-yl)-6-bromoquinolin-2(1H)-one]
inhibition at 10 µM [1]: < 5% | inhibition at 10 µM (A498, Renal cancer A498, 10 μM): < 5% | inhibition at 10 µM [2]: < 5% | inhibition at 10 µM (ACHN, Renal cancer ACHN, 10 μM): < 5% | inhibition at 10 µM [3]: < 5% | inhibition at 10 µM [4]: 16.5% | inhibition at 10 µM [5]: 8.16% | inhibition at 10 µM [6]: < 5% | inhibition at 10 µM [7]: < 5% | inhibition at 10 µM [8]: 6.46% | inhibition at 10 µM [9]: < 5% | inhibition at 10 µM [10]: < 5% | inhibition at 10 µM [11]: < 5% | inhibition at 10 µM [12]: 12.8% | inhibition at 10 µM [13]: 13.6% | inhibition at 10 µM [14]: 20.4% | inhibition at 10 µM [15]: 7.95% | inhibition at 10 µM [16]: 6.91% | inhibition at 10 µM [17]: < 5% | inhibition at 10 µM (K562, Leukemia K-562, 10 μM): < 5% | inhibition at 10 µM (KM12, Colon cancer KM12, 10 μM): < 5% | inhibition at 10 µM [18]: 9.22% | inhibition at 10 µM (Leukemia SR, 10 μM): < 5% | inhibition at 10 µM [19]: < 5% | inhibition at 10 µM [20]: < 5% | inhibition at 10 µM [21]: < 5% | inhibition at 10 µM [22]: < 5% | inhibition at 10 µM (MOLT-4, Leukemia MOLT-4, 10 μM): < 5% | inhibition at 10 µM [23]: 14% | inhibition at 10 µM (Melanoma M14, 10 μM): < 5% | inhibition at 10 µM [24]: < 5% | inhibition at 10 µM [25]: 10.7% | inhibition at 10 µM [26]: < 5% | inhibition at 10 µM [27]: < 5% | inhibition at 10 µM [28]: 7.32% | inhibition at 10 µM [29]: < 5% | inhibition at 10 µM [30]: < 5% | inhibition at 10 µM [31]: < 5% | inhibition at 10 µM [32]: < 5% | inhibition at 10 µM [33]: < 5% | inhibition at 10 µM (Prostate cancer PC-3, 10 μM): 13.3% | inhibition at 10 µM [34]: 9.34% | inhibition at 10 µM [35]: < 5% | inhibition at 10 µM [36]: < 5% | inhibition at 10 µM [37]: 6.55% | inhibition at 10 µM [38]: 7.46% | inhibition at 10 µM [39]: < 5% | inhibition at 10 µM [40]: < 5% | inhibition at 10 µM [41]: < 5% | inhibition at 10 µM [42]: < 5% | inhibition at 10 µM [43]: 6.46% | inhibition at 10 µM [44]: 5.52% | inhibition at 10 µM [45]: 15.6% | inhibition at 10 µM [46]: < 5% | inhibition at 10 µM [47]: 12.2% | inhibition at 10 µM [48]: < 5% | inhibition at 10 µM (U-251, CNS Cancer U251, 10 μM): < 5% | inhibition at 10 µM [49]: < 5% | inhibition at 10 µM [50]: < 5% | inhibition at 10 µM [51]: 37.4%

COc1ccc2[nH]c(=O)cc(-n3ncc(C(C)=O)c3C)c2c1 [Compound 2c, 4-(4-Acetyl-5-methyl-1H-pyrazol-1-yl)-6-methoxyquinolin-2(1H)-one]
inhibition at 10 µM [1]: < 5% | inhibition at 10 µM (A498, Renal cancer A498, 10 μM): < 5% | inhibition at 10 µM [2]: < 5% | inhibition at 10 µM (ACHN, Renal cancer ACHN, 10 μM): < 5% | inhibition at 10 µM [3]: < 5% | inhibition at 10 µM [4]: 15.6% | inhibition at 10 µM [5]: 5.28% | inhibition at 10 µM [6]: < 5% | inhibition at 10 µM [7]: < 5% | inhibition at 10 µM [8]: 6.27% | inhibition at 10 µM [9]: < 5% | inhibition at 10 µM [10]: < 5% | inhibition at 10 µM [11]: 7.78% | inhibition at 10 µM [12]: 12.5% | inhibition at 10 µM [13]: 18.8% | inhibition at 10 µM [14]: 31.6% | inhibition at 10 µM [15]: < 5% | inhibition at 10 µM [16]: < 5% | inhibition at 10 µM [17]: < 5% | inhibition at 10 µM (K562, Leukemia K-562, 10 μM): < 5% | inhibition at 10 µM (KM12, Colon cancer KM12, 10 μM): < 5% | inhibition at 10 µM [18]: 11.3% | inhibition at 10 µM (Leukemia SR, 10 μM): 8.98% | inhibition at 10 µM [19]: < 5% | inhibition at 10 µM [20]: 7% | inhibition at 10 µM [21]: < 5% | inhibition at 10 µM [22]: < 5% | inhibition at 10 µM (MOLT-4, Leukemia MOLT-4, 10 μM): < 5% | inhibition at 10 µM [23]: < 5% | inhibition at 10 µM (Melanoma M14, 10 μM): < 5% | inhibition at 10 µM [24]: < 5% | inhibition at 10 µM [25]: 7.15% | inhibition at 10 µM [26]: 7.11% | inhibition at 10 µM [27]: < 5% | inhibition at 10 µM [28]: 8.32% | inhibition at 10 µM [29]: < 5% | inhibition at 10 µM [30]: < 5% | inhibition at 10 µM [31]: < 5% | inhibition at 10 µM [32]: < 5% | inhibition at 10 µM [33]: < 5% | inhibition at 10 µM (Prostate cancer PC-3, 10 μM): 13.4% | inhibition at 10 µM [34]: 11.7% | inhibition at 10 µM [35]: < 5% | inhibition at 10 µM [36]: < 5% | inhibition at 10 µM [37]: < 5% | inhibition at 10 µM [38]: < 5% | inhibition at 10 µM [39]: < 5% | inhibition at 10 µM [40]: < 5% | inhibition at 10 µM [41]: < 5% | inhibition at 10 µM [42]: 7.83% | inhibition at 10 µM [43]: < 5% | inhibition at 10 µM [44]: < 5% | inhibition at 10 µM [45]: 11.8% | inhibition at 10 µM [46]: < 5% | inhibition at 10 µM [47]: 9.18% | inhibition at 10 µM [48]: < 5% | inhibition at 10 µM (U-251, CNS Cancer U251, 10 μM): 5.38% | inhibition at 10 µM [49]: < 5% | inhibition at 10 µM [50]: < 5% | inhibition at 10 µM [51]: 34.4%
